Earlier results on two compounds are cited in patent US7834258B2, “Dimer of chimeric recombinant binding domain-functional group fusion formed via disulfide-bond-bridge and the processes for producing the same” (priority 2003, dated 2010).

The data set relates to H2981 human lung adenocarcinoma cells.

Regarding `Nc1nc(=O)[nH]cc1F` [5-FC, 5-Fluorocytosine], where the note is “H2981 cells, 200 uM concentration”, the cytotoxicity entry is “no effect”. As to `O=c1[nH]cc(F)c(=O)[nH]1` [5-FU, 5-Fluorouracil], where the note is “H2981 human lung adenocarcinoma cells, read-out: ID50 (the source's name)”, the IC50 was 20 µM.
